# Structures can show the parent of a compound that is named as a salt.
# Molecular target: T1, human PAR-2 (hPAR-2) receptor expressed in HEK-293 T cells in an endogenous manner (Homo sapiens, UniProt P55085)
# T1 construct: human PAR-2 (hPAR-2) receptor expressed in HEK-293 T cells in an endogenous manner; endogenous in cells; host or cells: HEK-293 T cells
# T1 sequence (P55085 26-397): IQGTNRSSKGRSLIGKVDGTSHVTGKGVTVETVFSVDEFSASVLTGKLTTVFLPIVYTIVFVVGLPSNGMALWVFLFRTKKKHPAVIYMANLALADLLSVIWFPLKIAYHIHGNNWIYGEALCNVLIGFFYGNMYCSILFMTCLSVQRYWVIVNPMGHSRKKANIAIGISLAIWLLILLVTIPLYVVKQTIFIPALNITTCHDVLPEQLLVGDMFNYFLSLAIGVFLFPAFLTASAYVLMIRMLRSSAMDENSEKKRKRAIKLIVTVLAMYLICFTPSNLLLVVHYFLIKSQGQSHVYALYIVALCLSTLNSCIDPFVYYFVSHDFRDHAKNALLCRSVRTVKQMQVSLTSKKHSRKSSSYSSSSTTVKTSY
# Experiment: In vitro human PAR-2 functional antagonist activity using calcium assays (Fluo4AM, FLIPR Tetra)
# Type: cell-based
# Details: HEK-293 T cells stimulated by an EC80 of the 2-Furoyl-LIGRLO-NH2 peptide after 10 min incubation with compound; 20 concentrations, duplicate, two independent experiments
# Outline: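 Antagonist activity was taken as the decrease in the calcium response to an EC80 of 2-Furoyl-LIGRLO-NH2, measured over 5 min. The agonist was added after a 10 min compound-alone step on the same plate. The HEK-293 T cells express PAR-2 endogenously and were loaded with 1 μM Fluo4AM. Signals were referenced to buffer and EC80-alone controls.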
row,Structure (SMILES),IC50 [nM]
1,"Cc1cc(N2CCN(C(=O)c3cnc4c(-c5ccc(Cl)c(F)c5)cn(CC(C)C)c4n3)C(C)(C)C2)nc(C)c1C(=O)O [Example 190, 6-(4-(7-(4-chloro-3-fluorophenyl)-5-isobutyl-5H-pyrrolo[2,3-b]pyrazine-3-carbonyl)-3,3-dimethylpiperazin-1-yl)-2,4-dimethylnicotinic acid]",< 20
2,"Cc1cc(N2CCN(C(=O)c3ccc4c(-c5ccc(F)c(F)c5)cn(C(C)(C)C)c4n3)C(C)(C)C2)nc(C)c1C(=O)O [Example 191, 6-(4-(1-(tert-butyl)-3-(3,4-difluorophenyl)-1H-pyrrolo[2,3-b]pyridine-6-carbonyl)-3,3-dimethylpiperazin-1-yl)-2,4-dimethylnicotinic acid]",< 20
3,"Cc1cccc(Cn2cc(-c3ccc(Cl)c(F)c3)c3ccc(C(=O)N4CCN(c5cc(C)c(C(=O)O)c(C)n5)CC4(C)C)nc32)n1 [Example 192, 6-(4-(3-(4-chloro-3-fluorophenyl)-1-((6-methylpyridin-2-yl)methyl)-1H-pyrrolo[2,3-b]pyridine-6-carbonyl)-3,3-dimethylpiperazin-1-yl)-2,4-dimethylnicotinic acid hydrochloride]",< 20
4,"Cc1cccnc1Cn1cc(-c2ccc(Cl)c(F)c2)c2ccc(C(=O)N3CCN(c4cc(C)c(C(=O)O)c(C)n4)CC3(C)C)nc21 [Example 193, 6-(4-(3-(4-chloro-3-fluorophenyl)-1-((3-methylpyridin-2-yl)methyl)-1H-pyrrolo[2,3-b]pyridine-6-carbonyl)-3,3-dimethylpiperazin-1-yl)-2,4-dimethylnicotinic acid hydrochloride]",< 20
5,"CC1(C)CN(c2ccc(P(=O)(O)O)cn2)CCN1C(=O)c1ccc2c(-c3ccc(Cl)c(F)c3)cn(C(C)(C)C)c2n1 [Example 194, (6-(4-(1-(tert-butyl)-3-(4-chloro-3-fluorophenyl)-1H-pyrrolo[2,3-b]pyridine-6-carbonyl)-3,3-dimethylpiperazin-1-yl)pyridin-3-yl)phosphonic acid]",> 10000
6,"CCOP(=O)(O)c1ccc(N2CCN(C(=O)c3ccc4c(-c5ccc(Cl)c(F)c5)cn(C(C)(C)C)c4n3)C(C)(C)C2)nc1 [Example 195, ethyl hydrogen (6-(4-(1-(tert-butyl)-3-(4-chloro-3-fluorophenyl)-1H-pyrrolo[2,3-b]pyridine-6-carbonyl)-3,3-dimethylpiperazin-1-yl)pyridin-3-yl)phosphonate]",20 to 10000
7,"CN1C(=O)N(C)C2(CCN(C(=O)c3ccc4c(-c5ccc(Cl)c(F)c5)cn(C(C)(C)C)c4n3)CC2)C1=O [Example 197, 8-(1-(tert-butyl)-3-(4-chloro-3-fluorophenyl)-1H-pyrrolo[2,3-b]pyridine-6-carbonyl)-1,3-dimethyl-1,3,8-triazaspiro[4.5]decane-2,4-dione]",20 to 10000
8,"Cc1cc(NC2CCN(C(=O)c3ccc4c(-c5ccc(Cl)c(F)c5)cn(C(C)(C)C)c4n3)CC2C)nc(C)c1C(=O)O (stereo not shown) [Example 198, 6-((1-(1-(tert-butyl)-3-(4-chloro-3-fluorophenyl)-1H-pyrrolo[2,3-b]pyridine-6-carbonyl)-3-methylpiperidin-4-yl)amino)-2,4-dimethylnicotinic acid]",20 to 10000
9,"CC(C)(C)n1cc(-c2ccc(Cl)c(F)c2)c2ccc(C(=O)N3CCC4(NC(=O)NC4=O)C(C)(C)C3)nc21 (stereo not shown) [Example 200, 8-(1-(tert-butyl)-3-(4-chloro-3-fluorophenyl)-1H-pyrrolo[2,3-b]pyridine-6-carbonyl)-6,6-dimethyl-1,3,8-triazaspiro[4.5]decane-2,4-dione]",20 to 10000
10,"CC(C)(C)n1cc(-c2ccc(Cl)c(F)c2)c2ccc(C(=O)N3CCC4(NC(=O)NC4=O)C(F)(F)C3)nc21 (stereo not shown) [Example 201, 8-(1-(tert-butyl)-3-(4-chloro-3-fluorophenyl)-1H-pyrrolo[2,3-b]pyridine-6-carbonyl)-6,6-difluoro-1,3,8-triazaspiro[4.5]decane-2,4-dione]",20 to 10000
11,"CC(C)(C)n1cc(-c2ccc(Cl)c(F)c2)c2ccc(C(=O)N3CCC4(CCC(=O)N4)CC3)nc21 [Example 202, 8-(1-(tert-butyl)-3-(4-chloro-3-fluorophenyl)-1H-pyrrolo[2,3-b]pyridine-6-carbonyl)-1,8-diazaspiro[4.5]decan-2-one]",20 to 10000
12,"COC(=O)CC1CCN(C(=O)c2ccc3c(-c4ccc(Cl)c(F)c4)cn(CC(C)C)c3c2)CC1 [Example 203, methyl 2-(1-(3-(4-chloro-3-fluorophenyl)-1-isobutyl-1H-indole-6-carbonyl)piperidin-4-yl)acetate]",20 to 10000
13,"CC(C)Cn1cc(-c2ccc(Cl)c(F)c2)c2ccc(C(=O)N3CCC(CC(=O)O)CC3)cc21 [Example 204, 2-(1-(3-(4-chloro-3-fluorophenyl)-1-isobutyl-1H-indole-6-carbonyl)piperidin-4-yl)acetic acid]",20 to 10000
14,"Cc1cc(N2CCN(C(=O)c3ccc4c(-c5ccc(Cl)c(F)c5)c(C(F)(F)F)n(CC(C)C)c4n3)C(C)(C)C2)nc(C)c1C(=O)O [Example 205, 6-(4-(3-(4-chloro-3-fluorophenyl)-1-isobutyl-2-(trifluoromethyl)-1H-pyrrolo[2,3-b]pyridine-6-carbonyl)-3,3-dimethylpiperazin-1-yl)-2,4-dimethyinicotinic acid]",< 20
15,"CC(=O)c1cn(-c2ccc(Cl)c(F)c2)c2ccc(C(=O)N3CCC(CC(=O)O)CC3)cc12 [Example 206, 2-(1-(3-acetyl-1-(4-chloro-3-fluorophenyl)-1H-indole-5-carbonyl)piperidin-4-yl)acetic acid]",> 10000
16,"CC(C)N1CNC(=O)C12CCN(C(=O)c1ccc3c(-c4ccc(Cl)c(F)c4)cn(C(C)(C)C)c3n1)CC2 [Example 207, 8-(1-(tert-butyl)-3-(4-chloro-3-fluorophenyl)-1H-pyrrolo[2,3-b]pyridine-6-carbonyl)-1-isopropyl-1,3,8-triazaspiro[4.5]decan-4-one]",< 20
17,"CC(C)(C)n1cc(-c2ccc(Cl)c(F)c2)c2ccc(C(=O)N3CCN(c4cn[nH]c(=O)c4)CC3)nc21 [Example 208, 5-(4-(1-(tert-butyl)-3-(4-chloro-3-fluorophenyl)-1H-pyrrolo[2,3-b]pyridine-6-carbonyl)piperazin-1-yl)pyridazin-3(2H)-one]",> 10000
18,"CN1CNC(=O)C12CCN(C(=O)c1ccc3c(-c4ccc(Cl)c(F)c4)cn(C(C)(C)C)c3n1)CC2 [Example 209, 8-(1-(tert-butyl)-3-(4-chloro-3-fluorophenyl)-1H-pyrrolo[2,3-b]pyridine-6-carbonyl)-1-methyl-1,3,8-triazaspiro[4.5]decan-4-one]",> 10000
19,"Cc1cc(N2CCN(C(=O)c3ccc4c(-c5ccc(Cl)c(F)c5)cn(C(C)(C)C)c4n3)C(C)(C)C2)cc(C)c1C(=O)O [Example 210, 4-(4-(1-(tert-butyl)-3-(4-chloro-3-fluorophenyl)-1H-pyrrolo[2,3-b]pyridine-6-carbonyl)-3,3-dimethylpiperazin-1-yl)-2,6-dimethylbenzoic acid]",< 20
20,"Cc1cc(N2CCN(C(=O)c3ccc4c(-c5ccc(Cl)c(F)c5)cn(C[C@@H]5CCCO5)c4n3)C(C)(C)C2)nc(C)c1C(=O)O [Example 211, (S)-6-(4-(3-(4-chloro-3-fluorophenyl)-1-((tetrahydrofuran-2-yl)methyl)-1H-pyrrolo[2,3-b]pyridine-6-carbonyl)-3,3-dimethylpiperazin-1-yl)-2,4-dimethylnicotinic acid]",< 20
21,"Cc1cc(N2CCN(C(=O)c3ccc4c(-c5ccc(Cl)c(F)c5)cn(C[C@H]5CCCO5)c4n3)C(C)(C)C2)nc(C)c1C(=O)O [Example 212, (R)-6-(4-(3-(4-chloro-3-fluorophenyl)-1-((tetrahydrofuran-2-yl)methyl)-1H-pyrrolo[2,3-b]pyridine-6-carbonyl)-3,3-dimethylpiperazin-1-yl)-2,4-dimethylnicotinic acid]",< 20
22,"CC(C)(C)n1cc(-c2ccc(Cl)c(F)c2)c2ccc(C(=O)N3CCS(=O)(=O)CC3)nc21 [Example 214, (1-(tert-butyl)-3-(4-chloro-3-fluorophenyl)-1H-pyrrolo[2,3-b]pyridin-6-yl)(1,1-dioxidothiomorpholino)methanone]",20 to 10000
23,"CC1(C)CN(C(=O)CCCCCCC(=O)O)CCN1C(=O)c1ccc2c(-c3ccc(Cl)c(F)c3)cn(C(C)(C)C)c2n1 [Example 215, 8-(4-(1-(tert-butyl)-3-(4-chloro-3-fluorophenyl)-1H-pyrrolo[2,3-b]pyridine-6-carbonyl)-3,3-dimethylpiperazin-1-yl)-8-oxooctanoic acid]",< 20
24,"CCOC(=O)c1ccc(N2CCN(C(=O)c3ccn4c(-c5ccc(Cl)cc5)nc(C(C)(C)C)c4n3)C(C)(C)C2)nc1 [Example 216, ethyl 6-(4-(8-(tert-butyl)-6-(4-chlorophenyl)imidazo[1,5-a]pyrimidine-2-carbonyl)-3,3-dimethylpiperazin-1-yl)nicotinate]",> 10000
25,"CC(C)(C)c1nc(-c2ccc(Cl)cc2)n2ccc(C(=O)N3CCN(c4ccc(C(=O)O)cn4)CC3(C)C)nc12 [Example 217, 6-(4-(8-(tert-butyl)-6-(4-chlorophenyl)imidazo[1,5-a]pyrimidine-2-carbonyl)-3,3-dimethylpiperazin-1-yl)nicotinic acid]",20 to 10000

# From patent US20240066027A1 (DOMAIN THERAPEUTICS, priority 2020, published 2024)
